From patent US20250197399A1, “COMPOUNDS, COMPOSITIONS, AND METHODS” (Tenvie Therapeutics, Inc., priority 2022, published 2025)
Read-outs that look alike come from different tables or passages of the source.

Tested on: NLRP3
Assay: IL-1β secretion assay in PMA-differentiated, LPS/nigericin-stimulated THP-1 cells (ELISA)
Assay type: cell-based
Conditions: 25 ng/mL LPS then nigericin, IL-1β in supernatant
Description: Compounds as provided herein were tested in the following assay. Cell culture medium employed contained RPMI 1640 medium (89%), FBS (10%), Pen/Strep (1%), and 2-mercaptoethanol (0.05 mM). Freezing medium was made up of 90% FBS and 10% DMSO. THP-1 cells were removed from the liquid nitrogen and placed into a 37° C. water bath to thaw, until signs of ice dissipated. The cells were then added to 9 mL of warm cell culture medium and centrifuged for 5 minutes at 1000 rpm. The supernatant was discarded, and the cells were resuspended in new cell culture medium. THP-1 cells were then split and cultured in the cell culture medium, being passaged every 2-3 days with the cell density will be maintained between 5×10^5 and 1.5×10^6 viable cells/mL.
PMA was dissolved in DMSO to make a stock solution at 5 mg/ml and stored in 10 μl aliquots at −20° C. for single use. PMA is added to normal growth medium. LPS was diluted with 1 mL of water solution to provide a 1 mg/mL stock solution and stored in 15 μL aliquots at −20° C. for single use. Nigericin is diluted in ice cold 100% ethanol to 5 mg/ml (6.7 mM) and stored in 75 μL aliquots at −20° C. for single use. Serum-free media contains RPMI 1640 medium (99%), Pen/Strep (1%), and 2-mercaptoethanol (0.05 mM). The two control conditions used to qualify and normalize test compound dose-response curves were as follows: High Control=25 ng/mL LPS, […], 0.5% DMSO, Low Control=25 ng/mL, LPS, 0.5% DMSO.
THP-1 cells were diluted to provide a suspension at a concentration of 1.0×10^6 cells/mL with the total volume of suspension required to enable the desired number of assay plates. The growth media was supplemented with PMA (5 ng/mL final concentration) and the cells were incubated at 37° C. under a humidified atmosphere of 5% CO2 for 40 h.
All media was carefully aspirated from each culture flask. The cells were washed carefully with 1×DPBS. The cells were then briefly digested with trypsin LE for 5 minutes at 23° C. and immediately resuspended in cell growth media. After resuspension, the cells were centrifuged at 1000 rpm for 3 minutes and the supernatant was discarded. The cells were resuspended in DPBS and once again centrifuged at 1000 rpm for 5 minutes. The supernatant was discarded and the cell pellet was resuspended in serum-free media supplemented with LPS (25 ng/mL final concentration) to enable the distribution of 30K THP-1 cells within 45 μL of media into each well of 384-well PDL-coated plates. The 384-well plates were then incubated at 37° C. under a humidified atmosphere of 5% CO2 for 2 h. Following this period, test compounds were dispensed by Tecan across the desired concentration range with all wells normalized to a final 0.5% DMSO concentration. The plates were then then incubated at 37° C. under a humidified atmosphere of 5% CO2 for 1 h. Following this period, 5 μL of the 5 mg/mL nigericin stock solution was added to each of the appropriate wells and plates were centrifuged at 1000 rpm for 30 seconds. The plates were the immediately reintroduced to the incubator at 37° C. under a humidified atmosphere of 5% CO2 for 2 h. After this time, 35 μL/well of supernatant was collected and transferred into v-bottom plate and centrifuged at 1000 rpm for 1 minute. These supernatant aliquots were analyzed using an IL-Iβ detection kit as described below. If needed, the test samples could be snap frozen and stored at −80° C. until analyzed.
To prepare each ELISA plate, capture antibody (mAb Mt175) was diluted with PBS to a final concentration of […] and then 20 μL of this solution was added to each well of the ELISA plate. Each plate was allowed to incubate overnight at 4° C. The next day, the capture antibody solution was removed and discarded. Each ELISA plate was washed 4 times with PBST followed by the addition of 25 µL/well of blocking buffer (Licor-927-40010) supplemented with 0.1% Tween 20. Each ELISA plate was then allowed to incubate for 1 hour at 23° C. […]

[1] = THP-1 cells, read-out: Activity
[2] = THP-1 cells, read-out: Activity (IC50 class)
[3] = Homo sapiens, THP-1, THP-1 cells, read-out: Activity (IC50 class)
[4] = Homo sapiens, THP-1, THP-1 cells, read-out: Activity

| SMILES | IC50 [1] [nM] | IC50 [2] [nM] | IC50 [3] [nM] | IC50 [4] [nM] |
| --- | --- | --- | --- | --- |
| O=C(CN1CC2(CC2(F)F)c2c(ccc(Br)c2F)C1=O)Nc1nc2ccccn2n1 (single isomer, unassigned) [Example 30, N-([1,2,4]triazolo[1,5-a]pyridin-2-yl)-2-[6-bromo-1′,1′,5-trifluoro-1-oxospiro[3H-isoquinoline-4,2′-cyclopropane]-2-yl]acetamide] | 29200 | > 10000 | – | – |
| Cc1cnc(NC(=O)CN2CC3(CC3(F)F)c3c(ccc(Br)c3F)C2=O)nc1 (single isomer, unassigned) [Example 32, N-(5-methylpyrimidin-2-yl)-2-[6-bromo-1′,1′,5-trifluoro-1-oxospiro[3H-isoquinoline-4,2′-cyclopropane]-2-yl]acetamide] | 28600 | > 10000 | – | – |
| Cc1cnc(NC(=O)CN2CC3(CC3(F)F)c3c(ccc(Br)c3F)C2=O)nc1 (single isomer, unassigned) [Example 33, N-(5-methylpyrimidin-2-yl)-2-[6-bromo-1′,1′,5-trifluoro-1-oxospiro[3H-isoquinoline-4,2′-cyclopropane]-2-yl]acetamide] | 55 | < 1000 | – | – |
| O=C(CN1CC2(CC2(F)F)c2c(ccc(C3CC3)c2F)C1=O)Nc1ncc(Cl)cn1 (single isomer, unassigned) [Example 34, N-(5-chloropyrimidin-2-yl)-2-[6-cyclopropyl-1′,1′,5-trifluoro-1-oxospiro[3H-isoquinoline-4,2′-cyclopropane]-2-yl]acetamide] | 15600 | – | 1000 to 10000 | – |
| O=C(CN1CC2(CC2(F)F)c2c(ccc(C3CC3)c2F)C1=O)Nc1ncc(Cl)cn1 (single isomer, unassigned) [Example 35, N-(5-chloropyrimidin-2-yl)-2-[6-cyclopropyl-1′,1′,5-trifluoro-1-oxospiro[3H-isoquinoline-4,2′-cyclopropane]-2-yl]acetamide] | 16 | < 1000 | – | – |
| Cc1cnc(NC(=O)CN2CC3(CC3(F)F)c3c(ccc(C4CC4)c3F)C2=O)nc1 (single isomer, unassigned) [Example 37, N-(5-methylpyrimidin-2-yl)-2-[6-cyclopropyl-1′,1′,5-trifluoro-1-oxospiro[3H-isoquinoline-4,2′-cyclopropane]-2-yl]acetamide] | 78 | < 1000 | – | – |
| O=C(CN1CC2(CC2(F)F)c2cc(C(F)(F)F)ccc2C1=O)Nc1ncc(Cl)cn1 (single isomer, unassigned) [Example 39, N-(5-chloropyrimidin-2-yl)-2-[1′,1′-difluoro-6-(trifluoromethyl)-1-oxospiro[3H-isoquinoline-4,2′-cyclopropane]-2-yl]acetamide] | 6960 | 1000 to 10000 | – | – |
| O=C(CN1CC2(CC2(F)F)c2cc(C(F)(F)F)ccc2C1=O)Nc1ncc(F)cn1 (single isomer, unassigned) [Example 40, N-(5-fluoropyrimidin-2-yl)-2-[1′,1′-difluoro-6-(trifluoromethyl)-1-oxospiro[3H-isoquinoline-4,2′-cyclopropane]-2-yl]acetamide] | 9370 | – | 1000 to 10000 | – |
| O=C(CN1CC2(CC2(F)F)c2cc(C(F)(F)F)ccc2C1=O)Nc1ncc(F)cn1 (single isomer, unassigned) [Example 41, N-(5-fluoropyrimidin-2-yl)-2-[1′,1′-difluoro-6-(trifluoromethyl)-1-oxospiro[3H-isoquinoline-4,2′-cyclopropane]-2-yl]acetamide] | 67 | < 1000 | – | – |
| O=C(CN1C[C@]2(C[C@H]2F)c2c(ccc(Cl)c2F)C1=O)Nc1ncc2cn[nH]c2n1 (single isomer, unassigned) [Example 45, 2-[(2′s,4r)-6-chloro-2′,5-difluoro-1-oxospiro[3H-isoquinoline-4,1′-cyclopropane]-2-yl]-N-(1H-pyrazolo[3,4-d]pyrimidin-6-yl)acetamide] | – | – | < 1000 | 48 |

Results, then the molecule that gave them:

| IC50 [1] [nM] | IC50 [2] [nM] | IC50 [3] [nM] | IC50 [4] [nM] | SMILES |
| --- | --- | --- | --- | --- |
| 86 | < 1000 | – | – | O=C(CN1CC2(CC2(F)F)c2cc(C3CC3)ccc2C1=O)Nc1ncc(F)cn1 (single isomer, unassigned) [Example 29, N-(5-fluoropyrimidin-2-yl)-2-[6-cyclopropyl-1′,1′-difluoro-1-oxospiro[3H-isoquinoline-4,2′-cyclopropane]-2-yl]acetamide] |
| 33 | < 1000 | – | – | O=C(CN1CC2(CC2(F)F)c2c(ccc(Br)c2F)C1=O)Nc1nc2ccccn2n1 (single isomer, unassigned) [Example 31, N-([1,2,4]triazolo[1,5-a]pyridin-2-yl)-2-[6-bromo-1′,1′,5-trifluoro-1-oxospiro[3H-isoquinoline-4,2′-cyclopropane]-2-yl]acetamide] |
| 22400 | > 10000 | – | – | Cc1cnc(NC(=O)CN2CC3(CC3(F)F)c3c(ccc(C4CC4)c3F)C2=O)nc1 (single isomer, unassigned) [Example 36, N-(5-methylpyrimidin-2-yl)-2-[6-cyclopropyl-1′,1′,5-trifluoro-1-oxospiro[3H-isoquinoline-4,2′-cyclopropane]-2-yl]acetamide] |
| 126 | – | < 1000 | – | O=C(CN1CC2(CC2(F)F)c2cc(C(F)(F)F)ccc2C1=O)Nc1ncc(Cl)cn1 (single isomer, unassigned) [Example 38, N-(5-chloropyrimidin-2-yl)-2-[1′,1′-difluoro-6-(trifluoromethyl)-1-oxospiro[3H-isoquinoline-4,2′-cyclopropane]-2-yl]acetamide] |
| – | – | < 1000 | 51 | O=C(CN1C[C@]2(C[C@H]2F)c2c(ccc(Cl)c2F)C1=O)Nc1ncc(Cl)cn1 (single isomer, unassigned) [Example 43, 2-[(2′s,4r)-6-chloro-2′,5-difluoro-1-oxospiro[3H-isoquinoline-4,1′-cyclopropane]-2-yl]-N-(5-chloropyrimidin-2-yl)acetamide] |
| – | – | < 1000 | 113 | Cc1cnc(NC(=O)CN2C[C@]3(C[C@H]3F)c3c(ccc(Cl)c3F)C2=O)nc1 (single isomer, unassigned) [Example 44, 2-[(2′s,4r)-6-chloro-2′,5-difluoro-1-oxospiro[3H-isoquinoline-4,1′-cyclopropane]-2-yl]-N-(5-methylpyrimidin-2-yl)acetamide] |
| 231 | – | < 1000 | – | O=C(CN1C[C@]2(C[C@H]2F)c2cc(C(F)(F)F)ccc2C1=O)Nc1ncc2cn[nH]c2n1 (single isomer, unassigned) [Example 47, 2-[(2′s,4r)-2′-fluoro-1-oxo-6-(trifluoromethyl)spiro[3H-isoquinoline-4,1′-cyclopropane]-2-yl]-N-(1H-pyrazolo[3,4-d]pyrimidin-6-yl)acetamide] |
| 24 | < 1000 | – | – | O=C(CN1C[C@]2(C[C@H]2F)c2cc(C(F)(F)F)ccc2C1=O)Nc1ncc2cn[nH]c2n1 (single isomer, unassigned) [Example 48, 2-[(2′s,4r)-2′-fluoro-1-oxo-6-(trifluoromethyl)spiro[3H-isoquinoline-4,1′-cyclopropane]-2-yl]-N-(1H-pyrazolo[3,4-d]pyrimidin-6-yl)acetamide] |
